Measurements reported in publication PMC8592510 (CPT: Pharmacometrics & Systems Pharmacology, 2021).

Columns and labels:
[1] = cited from earlier work
[2] = cited from earlier work; remark: listed apart in the source
[3] = cited from earlier work; remark: listed apart in the source
[4] = format: in vivo, human; conditions: covariate analysis, allometric scaling principles
[5] = Logistic regression exposure-safety analyses; conditions: alectinib 300 or 600 mg b.i.d.
[6] = Bayesian feedback population PK analyses of phase III data; format: in vivo; conditions: human, plasma, oral
CYP3A = conditions: cited from earlier work

In the case of `C[C@@H](Oc1cc(-c2cnn(C3CCNCC3)c2)cnc1N)c1c(Cl)ccc(F)c1Cl` [crizotinib], the “Frequency of Grade ≥3 AEs and SAEs, crizotinib versus alectinib” value ([1]; ALEX study) is listed as “more frequent”.
In the case of `CCc1cc2c(cc1N1CCC(N3CCOCC3)CC1)C(C)(C)c1[nH]c3cc(C#N)ccc3c1C2=O` [alectinib], the Blood-brain barrier penetration [2] is given as “can penetrate the blood–brain barrier”, the Lipophilicity [3] is given as “lipophilic” and the “Body weight effect on clearance and volume” value [4] is given as “significant body weight effect”. For the same compound, the “Effect of Caverage on severity of the first event for SAEs or Grade ≥3 AEs” value [5] was “no apparent effect”, the “Relationship between Caverage and first occurrence of Grade ≥3 AEs” value ([5]; J-ALEX, ALEX, ALESIA) was “no significant relationship” and the “Relationship between combined alectinib and M4 molar concentration (Caverage) and first occurrence of SAEs” value ([5]; J-ALEX, ALEX, ALESIA) was “no significant relationship”. The half-life [6] was 2040 min, the “Enzyme involved in metabolism” value (CYP3A) was “CYP3A is the main enzyme” and the “First-pass metabolism by cytochrome P450 (CYP) 3A” value (CYP3A) was “limited”. The “Safety profile compared with crizotinib” value ([1]; J-ALEX, ALEX and ALESIA) was “favorable safety profile compared with crizotinib”.
